This is an account of results in ChEMBL document CHEMBL1201862, “PubChem BioAssay data set” (2004).

The source made the active and inactive calls.

Assay [1] in a line: NIH-3T3 fibroblast cytotoxicity, dose response, cytotoxicity control, cell-based, fluorescence, Alamar Blue, secondary assay (AID 2327).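 Note: NIH-3T3 mouse fibroblasts cultured with fluconazole at 8 µg/mL.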 The assay is classed as functional. On the technique in general: Resazurin is reduced to fluorescent resorufin, in cell work by metabolically active cells.
Assay [2] deals with HEK293. The assay can be described thus: NOD2 signaling inhibitors in MDP-stimulated cells, cell-based, uHTS, luminescence (AID 2001). It is filed as functional. Conditions: Homo sapiens.
Assay [3] in a line: microbe, parasite or virus in culture. It is filed as functional. Particulars: Mycobacterium tuberculosis.
The nature of assay [4]: C. albicans growth with fluconazole, confirmation, fluorescence, retest (AID 2467). It is filed as functional, cell-based.
Assay [5] has as its system HEK293. Kind of assay: cells. It is filed as functional, cell-based. Conditions: Homo sapiens.
The subject of assay [6] is HEK293. Kind of assay: NOD1 signaling inhibitors, primary screen, cell-based, luminescence, uHTS (AID 1578). It is filed as functional. Particulars: Homo sapiens.
The test system of assay [7] is HEK293. Kind of assay: cells. It is filed as functional, cell-based. Particulars: Homo sapiens. The source holds these as a separate data set.
Assay [8] concerns the target Nucleotide-binding oligomerization domain-containing protein 2 (Homo sapiens, UniProt Q9HC29). The assay can be described thus: NOD2 signaling inhibitors, cell-based, luminescence, uHTS, HEK293 (AID 1566). The assay is classed as functional.
For assay [9], the target named is G-protein coupled receptor 55 (Homo sapiens, UniProt Q9Y2T6). The assay can be described thus: GPR55 antagonists, SAR follow-up, counter-screen for GPR35 antagonist project, imaging, image-based (AID 2397). The assay is classed as functional.
The test system of assay [10] is HEK293. The assay can be described thus: cells. Conditions: Homo sapiens. It is filed as functional, cell-based. This is another data set of the same source.
Assay [11] is described as follows: inhibitors of intracellular T. cruzi replication, confirmation, NIH3T3 host cells, beta-gal luminescence (AID 2044).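 Note: intracellular parasites grown in NIH/3T3 mouse fibroblasts as host cells; luminescent beta-galactosidase reporter signal from transgenic T. cruzi replicating inside host cells; inhibitors lower the luminescence signal.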 The assay is classed as functional, cell-based.
Assay [12] can be described thus: cytotoxicity toward NIH3T3 fibroblasts, dose response, counter-screen, cell-based, ATP luminescence, mouse fibroblasts (AID 2010).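 Note: cells exposed to compound for about 90 hours before reading.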 It is filed as functional. Background: The purpose of a counterscreen is to sort out artefacts and off-target activity.
A further assay has as its system INS1. The assay can be described thus: beta cell apoptosis inhibitors, cytokine rescue, dose response, luminescence, retest (AID 449756).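 Note: cell death triggered by IL-1 beta plus TNF-alpha plus IFN-gamma mixture; protective hits raise ATP signal compared with cytokine alone wells.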 The assay is classed as functional, cell-based. Particulars: Rattus norvegicus.
Assay [13] in a line: HepG2 cell cytotoxicity, dose response, cytotoxicity control for non-replicating M. tuberculosis project (AID 489018). It is filed as functional. Particulars: Mycobacterium tuberculosis.
In assay [14] the target is Luciferin 4-monooxygenase (Photinus pyralis, UniProt P08659). Kind of assay: firefly luciferase enzyme inhibitors, dose response, biochemical, luminescence (AID 1891).
A short description of assay [15]: inhibitors of Trypanosoma cruzi host-cell infection, confirmation, beta-gal luminescence, NIH3T3 host cells (AID 2630). Particulars: Mus musculus. The assay is classed as functional, cell-based.
Assay [16] in a line: Luminescence Cell-Based Dose Confirmation HTS to Identify Inhibitors of Platelet Dense Granule Release. [Related pubchem assays: 1663 (Primary HTS), 1678 (Summary of Project)]. It is filed as functional.
Assay [17] in a line: Luminescence Cell-Based/Microorganism Confirmation at Dose of Inhibitors of Trypanosoma cruzi Infection. [Related pubchem assays: 1885, 1968 ]. The assay is classed as functional.
Another assay in a line: cells. It is filed as functional.
Assay [18] in a line: Luminescence Cell-Based Secondary HTS screen to identify cytotoxic compounds of NIH3T3 cells. [Related pubchem assays: 1885, 1968 ]. The assay is classed as functional.
In assay [19] the target is T1, Mannose-6-phosphate isomerase (Homo sapiens, UniProt P34949).
T1 sequence (P34949 whole entry): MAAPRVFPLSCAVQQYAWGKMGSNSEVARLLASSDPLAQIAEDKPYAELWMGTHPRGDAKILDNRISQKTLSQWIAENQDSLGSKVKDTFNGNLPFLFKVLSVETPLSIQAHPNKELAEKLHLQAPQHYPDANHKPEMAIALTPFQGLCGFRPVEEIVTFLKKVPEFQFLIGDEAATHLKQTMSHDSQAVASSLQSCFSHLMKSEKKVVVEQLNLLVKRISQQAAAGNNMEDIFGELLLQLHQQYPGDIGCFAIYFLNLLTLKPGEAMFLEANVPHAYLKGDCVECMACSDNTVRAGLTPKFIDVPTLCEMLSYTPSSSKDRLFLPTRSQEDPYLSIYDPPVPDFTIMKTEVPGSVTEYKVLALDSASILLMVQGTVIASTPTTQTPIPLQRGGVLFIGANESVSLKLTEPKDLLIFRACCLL
Kind of assay: PMI enzyme inhibitors, confirmation, biochemical, fluorescence intensity (AID 1535).

Assay [20] has as its target Glucose-6-phosphate 1-dehydrogenase (Homo sapiens, UniProt P11413). Kind of assay: human G6PD enzyme inhibitors, dose response, selectivity assay for P. falciparum G6PD inhibitor project, biochemical, fluorescence (AID 504792). The assay is classed as functional.
The target of assay [21] is Phosphoethanolamine/phosphocholine phosphatase (Homo sapiens, UniProt Q8TCT1). Kind of assay: SAR assay for compounds that inhibit PHOSPHO1. [Related pubchem assays (depositor defined):AID1545, AID1565, AID1574].
Phosphoethanolamine/phosphocholine phosphatase, sequence (Q8TCT1 whole entry): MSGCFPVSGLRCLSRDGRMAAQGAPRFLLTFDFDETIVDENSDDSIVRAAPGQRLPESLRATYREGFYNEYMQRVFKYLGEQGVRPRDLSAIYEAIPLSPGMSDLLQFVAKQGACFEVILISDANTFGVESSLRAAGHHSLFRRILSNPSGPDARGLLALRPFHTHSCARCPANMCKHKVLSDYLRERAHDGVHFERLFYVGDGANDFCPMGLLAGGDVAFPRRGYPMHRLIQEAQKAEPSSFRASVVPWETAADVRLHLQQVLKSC
For assay [22], the target named is DNA dC->dU-editing enzyme APOBEC-3G (Homo sapiens, UniProt Q9HC16). Kind of assay: Dose Response confirmation of small molecule APOBEC3G DNA Deaminase Inhibitors via a fluorescence-based single-stranded DNA deaminase assay. [Related pubchem assays (depositor defined):AID493012, AID493028]. The assay is classed as functional.
DNA dC->dU-editing enzyme APOBEC-3G, sequence (Q9HC16 whole entry): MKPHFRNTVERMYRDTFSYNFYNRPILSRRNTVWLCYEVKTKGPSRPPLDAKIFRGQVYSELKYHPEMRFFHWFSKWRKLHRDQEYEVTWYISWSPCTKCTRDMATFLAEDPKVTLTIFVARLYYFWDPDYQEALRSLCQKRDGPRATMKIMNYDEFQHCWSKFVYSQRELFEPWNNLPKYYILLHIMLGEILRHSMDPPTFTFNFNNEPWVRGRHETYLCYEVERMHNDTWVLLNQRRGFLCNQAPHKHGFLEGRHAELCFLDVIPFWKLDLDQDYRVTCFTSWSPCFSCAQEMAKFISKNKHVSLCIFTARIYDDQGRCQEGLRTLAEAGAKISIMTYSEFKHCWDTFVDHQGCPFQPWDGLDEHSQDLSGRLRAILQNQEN
For the next assay, the target named is Phosphomannomutase 2 (Homo sapiens, UniProt O15305). The assay can be described thus: Counter screen SAR assay for PMM2 inhibitors via a fluorescence intensity assay. [Related pubchem assays (depositor defined):AID1545, AID1574].
The target of assay [23] is Lysine-specific demethylase 4A (Homo sapiens, UniProt O75164). Kind of assay: JMJD2A histone demethylase inhibitors, dose response, selectivity assay for GASC-1 inhibitor project, biochemical, DELFIA europium, cherry-picked samples (AID 488840).
Assay [24] addresses Lysine-specific demethylase 4C (Homo sapiens, UniProt Q9H3R0). The assay can be described thus: GASC-1 (JMJD2C) histone demethylase inhibitors, dose response, biochemical, DELFIA europium, cherry-picked samples (AID 488835). It is filed as functional.
The subject of assay [25] is HEK293. Kind of assay: cells. Particulars: Homo sapiens.
The target of the next assay is Tumor necrosis factor (Homo sapiens, UniProt P01375). The assay can be described thus: TNFa-triggered NF-kB activation inhibitors, SAR follow-up, cell-based, revised (AID 2337). It is filed as functional.
Tumor necrosis factor, sequence (P01375 whole entry, the tested form may be a part): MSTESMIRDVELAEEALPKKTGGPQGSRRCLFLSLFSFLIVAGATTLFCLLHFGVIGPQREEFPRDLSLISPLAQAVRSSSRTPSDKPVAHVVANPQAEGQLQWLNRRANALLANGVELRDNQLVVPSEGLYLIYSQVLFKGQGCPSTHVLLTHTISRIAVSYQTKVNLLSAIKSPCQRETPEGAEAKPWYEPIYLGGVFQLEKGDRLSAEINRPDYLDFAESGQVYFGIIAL
The target of assay [26] is T2, Nucleotide-binding oligomerization domain-containing protein 1 (Homo sapiens, UniProt Q9Y239).
T2 sequence (Q9Y239 whole entry): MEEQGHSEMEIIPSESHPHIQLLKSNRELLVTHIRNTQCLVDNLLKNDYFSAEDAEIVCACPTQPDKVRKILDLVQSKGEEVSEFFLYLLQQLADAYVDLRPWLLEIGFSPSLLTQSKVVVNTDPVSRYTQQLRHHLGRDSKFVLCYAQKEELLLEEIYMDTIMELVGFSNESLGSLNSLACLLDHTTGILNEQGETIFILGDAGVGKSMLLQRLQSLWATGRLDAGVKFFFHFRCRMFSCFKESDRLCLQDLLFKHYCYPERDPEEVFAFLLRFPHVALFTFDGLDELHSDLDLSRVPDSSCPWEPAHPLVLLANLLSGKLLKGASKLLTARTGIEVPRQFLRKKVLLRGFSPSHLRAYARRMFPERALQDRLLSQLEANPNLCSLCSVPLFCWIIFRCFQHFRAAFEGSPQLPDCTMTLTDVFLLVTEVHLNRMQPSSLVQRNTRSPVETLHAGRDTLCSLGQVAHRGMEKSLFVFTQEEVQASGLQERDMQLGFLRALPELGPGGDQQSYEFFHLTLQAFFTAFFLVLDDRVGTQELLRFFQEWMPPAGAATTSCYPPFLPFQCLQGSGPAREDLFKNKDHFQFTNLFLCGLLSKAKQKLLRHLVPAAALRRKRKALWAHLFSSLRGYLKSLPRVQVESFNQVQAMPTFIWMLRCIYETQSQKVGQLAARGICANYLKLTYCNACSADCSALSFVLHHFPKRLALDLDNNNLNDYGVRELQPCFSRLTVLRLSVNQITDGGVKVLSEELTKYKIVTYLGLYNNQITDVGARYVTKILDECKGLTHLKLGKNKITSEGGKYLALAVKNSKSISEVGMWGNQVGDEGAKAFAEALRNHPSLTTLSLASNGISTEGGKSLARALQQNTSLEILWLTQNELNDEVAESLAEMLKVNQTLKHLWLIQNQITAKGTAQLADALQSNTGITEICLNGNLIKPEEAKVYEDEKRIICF
The assay can be described thus: NOD1 signaling inhibitors, SAR follow-up, revised (AID 2333). It is filed as functional.

The target of assay [27] is T3, Voltage-gated N-type calcium channel alpha-1B subunit/Amyloid beta A4 precursor protein-binding family A member 1 (Homo sapiens, UniProt Q00975+Q02410). Kind of assay: disruptors of Mint-PDZ/N-type channel peptide interaction – biochemical, HTRF, set 2, SAR follow-up (AID 434980). The assay is classed as functional. Background: Time-resolved FRET reads energy transfer from a long-lived donor to a nearby acceptor.
T3 sequence (Q00975 whole entry): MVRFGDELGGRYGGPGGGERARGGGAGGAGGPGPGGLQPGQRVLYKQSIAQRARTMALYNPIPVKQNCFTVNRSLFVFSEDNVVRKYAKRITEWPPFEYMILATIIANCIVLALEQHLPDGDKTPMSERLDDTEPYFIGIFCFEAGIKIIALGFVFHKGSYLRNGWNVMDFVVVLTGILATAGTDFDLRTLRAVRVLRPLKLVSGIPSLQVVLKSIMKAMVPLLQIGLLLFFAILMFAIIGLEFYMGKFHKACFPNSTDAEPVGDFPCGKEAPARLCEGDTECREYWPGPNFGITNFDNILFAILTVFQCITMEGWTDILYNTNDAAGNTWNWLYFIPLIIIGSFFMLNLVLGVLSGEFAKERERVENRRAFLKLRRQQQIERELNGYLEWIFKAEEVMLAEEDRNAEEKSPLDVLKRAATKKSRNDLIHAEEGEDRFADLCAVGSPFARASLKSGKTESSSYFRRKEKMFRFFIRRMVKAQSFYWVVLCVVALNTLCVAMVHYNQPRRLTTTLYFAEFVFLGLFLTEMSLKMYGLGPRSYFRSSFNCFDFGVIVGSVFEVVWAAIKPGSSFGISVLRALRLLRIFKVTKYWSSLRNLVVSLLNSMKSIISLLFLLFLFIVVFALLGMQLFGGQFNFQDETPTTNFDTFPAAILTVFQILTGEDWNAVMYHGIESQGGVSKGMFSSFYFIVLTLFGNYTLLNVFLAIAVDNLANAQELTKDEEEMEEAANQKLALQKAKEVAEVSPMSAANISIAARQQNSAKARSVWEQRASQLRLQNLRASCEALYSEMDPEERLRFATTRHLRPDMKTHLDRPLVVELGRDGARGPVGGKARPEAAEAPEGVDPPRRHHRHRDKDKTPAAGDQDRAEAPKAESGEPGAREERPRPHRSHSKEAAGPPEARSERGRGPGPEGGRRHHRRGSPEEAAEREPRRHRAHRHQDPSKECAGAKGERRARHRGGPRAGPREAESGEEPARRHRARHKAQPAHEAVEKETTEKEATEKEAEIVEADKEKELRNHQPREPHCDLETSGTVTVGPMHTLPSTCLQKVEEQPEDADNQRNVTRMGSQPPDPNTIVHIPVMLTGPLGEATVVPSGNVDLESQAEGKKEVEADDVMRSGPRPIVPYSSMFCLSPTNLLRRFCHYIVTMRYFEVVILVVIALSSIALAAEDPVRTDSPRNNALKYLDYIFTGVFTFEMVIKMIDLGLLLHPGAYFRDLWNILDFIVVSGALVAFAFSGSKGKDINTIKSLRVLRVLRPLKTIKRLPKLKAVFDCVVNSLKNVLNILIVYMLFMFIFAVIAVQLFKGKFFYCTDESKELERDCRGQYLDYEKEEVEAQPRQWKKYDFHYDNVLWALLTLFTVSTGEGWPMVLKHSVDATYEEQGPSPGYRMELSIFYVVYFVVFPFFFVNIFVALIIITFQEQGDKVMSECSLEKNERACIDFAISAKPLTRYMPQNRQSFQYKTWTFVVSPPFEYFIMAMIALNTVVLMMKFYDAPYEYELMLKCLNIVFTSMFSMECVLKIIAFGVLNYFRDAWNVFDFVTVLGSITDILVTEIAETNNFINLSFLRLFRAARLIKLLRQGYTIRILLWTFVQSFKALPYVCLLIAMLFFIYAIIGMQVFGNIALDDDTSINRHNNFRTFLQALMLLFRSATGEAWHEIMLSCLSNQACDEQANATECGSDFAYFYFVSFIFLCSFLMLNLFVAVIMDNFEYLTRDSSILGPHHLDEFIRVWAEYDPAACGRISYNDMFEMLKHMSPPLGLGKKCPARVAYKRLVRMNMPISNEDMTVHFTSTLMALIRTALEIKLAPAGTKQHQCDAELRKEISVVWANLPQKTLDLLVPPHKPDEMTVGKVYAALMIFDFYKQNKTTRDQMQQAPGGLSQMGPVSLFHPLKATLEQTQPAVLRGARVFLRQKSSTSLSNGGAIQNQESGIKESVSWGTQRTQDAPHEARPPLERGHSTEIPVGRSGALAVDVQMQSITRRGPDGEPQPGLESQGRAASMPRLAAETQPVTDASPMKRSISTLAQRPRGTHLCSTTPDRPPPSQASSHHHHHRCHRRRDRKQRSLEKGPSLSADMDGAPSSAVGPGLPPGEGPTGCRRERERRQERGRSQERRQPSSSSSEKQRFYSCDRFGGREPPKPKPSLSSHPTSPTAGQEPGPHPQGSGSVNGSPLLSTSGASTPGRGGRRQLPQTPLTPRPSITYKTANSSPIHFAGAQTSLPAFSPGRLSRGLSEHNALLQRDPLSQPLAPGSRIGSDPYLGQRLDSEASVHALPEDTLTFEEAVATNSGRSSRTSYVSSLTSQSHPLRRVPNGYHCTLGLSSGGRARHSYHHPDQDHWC
T3 sequence (Q02410 whole entry): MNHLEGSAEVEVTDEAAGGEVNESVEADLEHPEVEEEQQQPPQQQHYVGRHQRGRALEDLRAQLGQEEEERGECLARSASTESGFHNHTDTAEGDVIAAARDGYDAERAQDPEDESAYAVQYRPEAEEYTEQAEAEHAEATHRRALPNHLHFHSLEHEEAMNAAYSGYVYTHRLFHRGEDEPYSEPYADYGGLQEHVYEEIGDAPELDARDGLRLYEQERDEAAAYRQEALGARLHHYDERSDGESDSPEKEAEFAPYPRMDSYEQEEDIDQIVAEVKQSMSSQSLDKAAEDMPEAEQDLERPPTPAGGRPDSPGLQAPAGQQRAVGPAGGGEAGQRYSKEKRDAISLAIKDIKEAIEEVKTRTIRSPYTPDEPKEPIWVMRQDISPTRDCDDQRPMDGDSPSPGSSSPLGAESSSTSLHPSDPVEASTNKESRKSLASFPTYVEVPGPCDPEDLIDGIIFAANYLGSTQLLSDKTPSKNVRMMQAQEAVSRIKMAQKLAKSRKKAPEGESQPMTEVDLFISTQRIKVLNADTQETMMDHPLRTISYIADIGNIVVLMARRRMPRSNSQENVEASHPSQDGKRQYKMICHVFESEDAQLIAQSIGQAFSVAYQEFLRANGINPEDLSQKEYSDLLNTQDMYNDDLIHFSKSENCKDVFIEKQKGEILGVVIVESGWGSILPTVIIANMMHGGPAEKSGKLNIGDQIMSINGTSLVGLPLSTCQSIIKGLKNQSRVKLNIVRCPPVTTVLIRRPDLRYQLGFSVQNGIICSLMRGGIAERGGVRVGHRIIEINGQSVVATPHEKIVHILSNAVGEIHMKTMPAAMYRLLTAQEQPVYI

The target of assay [28] is T3, Voltage-gated N-type calcium channel alpha-1B subunit/Amyloid beta A4 precursor protein-binding family A member 1. The assay can be described thus: disruptors of Mint-PDZ/N-type channel peptide interaction – biochemical, HTRF, SAR follow-up (AID 2489). It is filed as functional.
The target of another assay is SUMO E1/E2 (Homo sapiens, UniProt P63279+Q9UBE0+Q9UBT2). Kind of assay: SAR analysis of SUMOylation using HTRF in an in-Vitro dose response assay. [Related pubchem assays (depositor defined):AID2006, AID2011, AID2018, AID2069, AID2658]. The assay is classed as functional.

Nucleotide-binding oligomerization domain-containing protein 2, sequence (Q9HC29 whole entry, the tested form may be a part): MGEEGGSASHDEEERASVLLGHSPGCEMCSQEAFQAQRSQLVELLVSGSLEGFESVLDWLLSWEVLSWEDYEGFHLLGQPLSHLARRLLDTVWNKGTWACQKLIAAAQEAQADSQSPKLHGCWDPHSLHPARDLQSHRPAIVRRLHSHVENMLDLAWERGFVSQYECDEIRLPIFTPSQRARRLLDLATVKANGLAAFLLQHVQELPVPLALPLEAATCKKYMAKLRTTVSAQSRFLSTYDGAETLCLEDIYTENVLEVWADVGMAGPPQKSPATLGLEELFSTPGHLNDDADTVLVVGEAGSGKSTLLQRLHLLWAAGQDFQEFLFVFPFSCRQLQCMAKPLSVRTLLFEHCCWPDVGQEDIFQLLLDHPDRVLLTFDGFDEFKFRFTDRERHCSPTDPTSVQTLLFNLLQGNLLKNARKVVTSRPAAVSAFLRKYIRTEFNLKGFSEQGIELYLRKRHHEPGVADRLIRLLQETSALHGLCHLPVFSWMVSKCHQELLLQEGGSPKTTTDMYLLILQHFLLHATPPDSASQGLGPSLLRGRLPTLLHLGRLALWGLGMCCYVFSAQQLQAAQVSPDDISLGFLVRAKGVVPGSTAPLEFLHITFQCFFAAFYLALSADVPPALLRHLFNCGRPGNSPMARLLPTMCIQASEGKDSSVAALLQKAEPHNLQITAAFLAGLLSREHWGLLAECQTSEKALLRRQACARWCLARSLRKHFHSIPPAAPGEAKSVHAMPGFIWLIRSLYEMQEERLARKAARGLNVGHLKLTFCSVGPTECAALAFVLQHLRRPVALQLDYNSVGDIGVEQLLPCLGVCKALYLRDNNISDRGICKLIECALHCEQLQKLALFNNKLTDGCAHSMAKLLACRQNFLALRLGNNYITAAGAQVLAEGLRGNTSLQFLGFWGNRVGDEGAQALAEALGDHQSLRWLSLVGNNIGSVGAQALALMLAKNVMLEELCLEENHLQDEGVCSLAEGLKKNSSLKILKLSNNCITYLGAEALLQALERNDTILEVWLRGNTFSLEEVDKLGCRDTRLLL

Take `Cc1ccc2c(c1)c(/C=C/c1cc[n+](C)cc1)c(C)n2C`: the EC50 in [1] is > 160 µM (inactive); in [4], 0.59 µM (active); in the assay with HEK293 [6] it was 17.3 µM (active); in assay [8], 4.42 µM (active); in [11], 0.294 µM (active); in assay [12] it was > 60 µM (not active). For the same compound, the IC50 in the assay with HEK293 [2] was 14.7 µM (inactive); in the assay on HEK293 [5], > 20 µM (inactive); with HEK293 [7] it was 18 µM (active); in assay [9], 0.462 µM (active); in the assay with HEK293 [10] it was > 20 µM (inactive). Also, in [3], the CC50 is > 40 µM (active). Moreover, the AC50 with INS1 is 3.46 µM (active).

On to `OC(COc1ccc2ccccc2c1Br)Cn1ccnc1` (stereo not given), for which, in [13], the CC50 is > 20 µM (active). In addition, the EC50 is > 112 µM (not active) in assay [14]; 2.07 µM (active) in assay [15]; > 112 µM (not active) in [16]; 2.07 µM (active) in [17]; > 195 µM (not active) in assay [18]; 0.501 µM (active) in assay [11]. Moreover, the EC50 in [12] is on record as > 60 µM (not active). Moreover, in the assay “cells”, the half-maximal inhibitory concentration (IC50) was 14.3 µM (active).

As for `O=c1c2ccccc2sn1-c1ccc(S(=O)(=O)N2CCCCC2)cc1`, the IC50 in [19] was > 50 µM (inactive); in assay [20], > 80 µM (inactive); in [21], 38.9 µM (inactive); in [22] it was 19.4 µM (active); on Phosphomannomutase 2, > 100 µM (inactive).

Turning to `O=C1NC(=O)C(=NNC(=O)C2COc3ccccc3O2)C(=O)N1` (stereo not given), the AC50 in assay [23] was 11.7 µM (active); in assay [24], 2.66 µM (active).

`CCC(=O)N1c2ccc(S(=O)(=O)N3CCN(c4ccc(Cl)cc4)CC3)cc2CC1C` (stereo not given): the figures for the IC50 (with HEK293 [25]; on Tumor necrosis factor; in assay [26]) were 6.8 µM (active), 0.584 µM (active) and 1.01 µM (active), respectively.

Take `COc1ccc(CNC(=O)C(C)OC(=O)c2cc(-c3ccco3)nc3ccccc23)cc1` (stereo not given): the IC50 is 8.2 µM (active) in assay [27], 17.5 µM (active) in assay [28] and 7.68 µM (active) on SUMO E1/E2.

Broadly, the EC50 is the concentration needed to bring the measured effect to its halfway point. As a reminder, the IC50 is the concentration needed to halve the response being measured. The AC50 is the concentration at which the activity in the assay is half-maximal.
